System: subcutaneously grown Hep3B tumors
Test: Murine xenograft model of human HCC (Hep3B)
Assay type: in vivo, nude mice
Description: To test the armed vectors pc3MerV2 Id-SCD, pMerV2 P-SCD, and pc3MerV2 Id-VP22SCD in vivo, a murine xenograft model of human HCC was applied.
To compare the armed vectors, a mouse model of subcutaneously grown Hep3B tumors was chosen. This decision was based on the facts (i) that Hep3B can be efficiently infected by MeV and support MeV replication at high levels, (ii) that in Hep3B, the conversion of 5-FC into 5-FU is fast and efficient and (iii) that over an incubation of 1-4 days after addition of the prodrug to infected cells, an increasing gap between the treatment with virus alone and the combination treatment can be observed. Additionally, a mouse model of Hep3B has been described before (Blechacz B, Splinter P L, Greiner S, Myers R, Peng K W, Federspiel M J, Russell S J, LaRusso N F. Hepatology. 2006 December; 44(6):1465-77) with a high engraftment ratio (80%, personal communication with Boris Blechacz, Mayo Clinic, Rochester, Minn., USA). In contrast, this ratio is much lower in PLC/PRF/5 (60%) and in HepG2, both determined in our laboratory.
For this in vivo experiment, six week old nude mice received subcutaneous injections of 100 μl cell suspension containing 10^6 Hep3B cells in PBS. […] The tumors were very well vascularized and appeared blue through the nude skin of the mice. After the tumors had grown to a diameter of approximately 5 mm, the mice received five intratumoral injections of the respective virus (MeV Id-SCD, MeV Id-VP22SCD or MeV P-SCD) with 2*10^6 pfu per injection and one injection daily (total dose: 10^7 pfu). Control groups were treated with medium only. On the following seven days, the mice received 500 mg/kg bodyweight 5-FC in PBS intraperitoneally. Tumor volume and weight of the animals were determined three times a week.
The combinatorial treatment (MeV-SCD+5-FC) did neither lead to any visible changes in the behavior of the animals, nor did they show reactions like enhanced sensitivity to touch. The skin of the mice looked healthy, no changes in their movement or feeding behaviors were observed and their weight remained stable.

## Nc1nc(=O)[nH]cc1F [5-FC, 5-fluorocytosine]
5-FC 500 mg/kg i.p., 7 days, no virus
  effect of administration of the prodrug alone: no effect
5-FC only group
  day before which all mice had to be sacrificed: < 50 days
Virus 5 intratumoral injections 2*10^6 pfu, 5-FC 500 mg/kg i.p. for 7 days
  median survival: 32 days
